Read-outs that look alike come from different tables or passages of the source.
Key:
[1] = test system: various annual and perennial weeds; experiment: Field weed control overall, glyphosate technical acid (Example 2); type: in vivo; conditions: 21 DAT; different rates; 10 fields
Description: (§1) Prior to any preparation all spray-mixing and application equipment were cleaned thoroughly by observing cleaning directions provided on the agrochemical labeling and accompanying materials provided by the maker. Half of the required water was placed in a spray tank. A required amount of the formulation aid was added in the spray tank for the required rate of glyphosate application as indicated in Table 1. […] Mixing was continued and remainder of the water was added to the spray tank. Mixing was: continued for another 5-10 minutes. The ready to use herbicide and formulation aid mixture was applied by spraying at the required rate.
(§2) The formulation aid tested in this example contained about 21.5% by weight aromatic hydrocarbon distillate, about 3.1% by weight 2N-octanol, about 5.7% by weight oleyl-cetyl alcohol, about 3.1% by weight polyoxyethylene (8) nonylphenolethin, about 33.3% by weight polyoxyalkylated fatty alcohol, and about 33.3% by weight ethoxylated tallow amine blend.

[2] = test system: Sow Thistle; experiment: Field control of broad-spectrum weeds with glyphosate technical acid + formulation aid (Example 2); type: in vivo; conditions: 21 DAT
Description: as §1, §2

[3] = test system: Lambsquarters; experiment: as above; type: in vivo; conditions: 21 DAT
Description: as §1, §2

[4] = test system: Dandelions; experiment: as above; type: in vivo; conditions: 21 DAT
Description: as §1, §2

[5] = test system: Quackgrass; experiment: as above; type: in vivo; conditions: 21 DAT
Description: as §1, §2

[6] = test system: Catnip; experiment: as above; type: in vivo; conditions: 21 DAT
Description: as §1, §2

[7] = test system: Pig Weed; experiment: as above; type: in vivo; conditions: 21 DAT
Description: as §1, §2

[8] = test system: Canada Thistle; experiment: as above; type: in vivo; conditions: 21 DAT
Description: as §1, §2

[9] = test system: Annual grasses; experiment: as above; type: in vivo, foxtails, annual bluegrass, crabgrass, witchgrass; conditions: 21 DAT
Description: as §1, §2

[10] = test system: Lambsquarters; conditions: 21 DAT, spray volume 200 l/ha
Description: (§3) The results shown in Table 3 were obtained by applying the mixture of dicamba technical acid (87%) and the formulation aid to two fields infected with various annual and perennial weeds (indicated in Table 3). The experiments were conducted between the period of September 1998 to August 2000.

[11] = test system: various annual and perennial weeds; conditions: 21 DAT; spray volume of 200 l/ha; different rates; two fields
Description: as §3

[12] = test system: Pig Weed; conditions: 21 DAT, spray volume 200 l/ha
Description: as §3

[13] = glyphosate technical acid (95%) 0.24 Kg or l/ha + formulation aid 0.5 l/ha or + water
[14] = glyphosate technical acid (95%) 0.53 Kg or l/ha + formulation aid 0.5 l/ha or + water
[15] = glyphosate technical acid (95%) 0.94 Kg or l/ha + formulation aid 0.9 l/ha or + water
[16] = Dicamba 0.140 Kg/ha + formulation aid 1.0 L/ha or + water
[17] = Dicamba 0.280 Kg/ha + formulation aid 1.0 L/ha or + water

## O=C(O)CNCP(=O)(O)O [Glyphosate + water, N-phosphonomethylglycine]
[1]
  weed control (in words): No weed control
[2]; [13]
  Control of Sow Thistle: 0%
[2]; [14]
  Control of Sow Thistle: 0%
[2]; [15]
  Control of Sow Thistle: 0%
[3]; [13]
  Control of Lambsquarters: 0%
[3]; [14]
  Control of Lambsquarters: 0%
[3]; [15]
  Control of Lambsquarters: 0%
[4]; [13]
  Control of Dandelions: 0%
[4]; [14]
  Control of Dandelions: 0%
[4]; [15]
  Control of Dandelions: 0%
[5]; [13]
  Control of Quackgrass: 0%
[5]; [14]
  Control of Quackgrass: 0%
[5]; [15]
  Control of Quackgrass: 0%
[6]; [13]
  Control of Catnip: 0%
[6]; [14]
  Control of Catnip: 0%
[6]; [15]
  Control of Catnip: 0%
[7]; [13]
  Control of Pig Weed: 0%
[7]; [14]
  Control of Pig Weed: 0%
[7]; [15]
  Control of Pig Weed: 0%
[8]; [13]
  Control of Canada Thistle: 0%
[8]; [14]
  Control of Canada Thistle: 0%
[8]; [15]
  Control of Canada Thistle: 0%
[9]; [13]
  Control of Annual grasses: 0%
[9]; [14]
  Control of Annual grasses: 0%
[9]; [15]
  Control of Annual grasses: 0%

## COc1c(Cl)ccc(Cl)c1C(=O)O [Dicamba + water, 3,6-dichloro-2-methoxybenozic acid]
[10]; [16]
  Control of Lambsquarters: 0%
[10]; [17]
  Control of Lambsquarters: 0%
[11]
  weed control (in words): No weed control
[12]; [16]
  Control of Pig Weed: 0%
[12]; [17]
  Control of Pig Weed: 0%
